# How the values were obtained:
# Parameters in all cases: scale not given: the % may be the effect or the level left
# [1] = target: T1, Mitogen-activated protein kinase 15 (Homo sapiens) (UniProt Q8TD08); test: Inhibition of human ERK7 assessed as enzyme activity at 1 uM using myelin basic protein as substrate preincubated for 20 mins followed by [gamma-33P]-ATP addition and measured after 120 mins by radiometric Hot-SpotSM Kinase assay relative to control
# T1 sequence (whole entry): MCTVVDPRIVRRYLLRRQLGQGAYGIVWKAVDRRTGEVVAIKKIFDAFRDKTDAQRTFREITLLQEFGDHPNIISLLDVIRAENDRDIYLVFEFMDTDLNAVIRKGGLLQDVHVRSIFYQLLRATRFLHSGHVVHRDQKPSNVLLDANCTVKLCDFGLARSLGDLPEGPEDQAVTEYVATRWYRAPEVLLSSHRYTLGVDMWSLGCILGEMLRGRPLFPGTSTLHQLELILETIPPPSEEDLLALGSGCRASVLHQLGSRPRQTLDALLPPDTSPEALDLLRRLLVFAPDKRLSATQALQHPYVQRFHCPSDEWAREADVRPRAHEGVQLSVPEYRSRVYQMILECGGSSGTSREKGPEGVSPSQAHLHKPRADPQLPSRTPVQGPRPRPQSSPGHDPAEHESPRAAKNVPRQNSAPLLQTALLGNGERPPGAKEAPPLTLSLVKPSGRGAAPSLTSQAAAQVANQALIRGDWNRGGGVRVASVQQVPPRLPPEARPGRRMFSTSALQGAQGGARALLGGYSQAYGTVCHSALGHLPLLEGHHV
# [2] = target: CDK1/Cyclin A (Homo sapiens) (UniProt P06493+P20248); test: Inhibition of human CDK1/cyclin A assessed as enzyme activity at 1 uM using RB Protein as substrate preincubated for 20 mins followed by [gamma-33P]-ATP addition and measured after 120 mins by radiometric Hot-SpotSM Kinase assay relative to control; assay type: protein-complex assay
# [3] = target: STE20-like serine/threonine-protein kinase (Homo sapiens) (UniProt Q9H2G2); test: Inhibition of human SLK assessed as enzyme activity at 1 uM using histone H3 as substrate preincubated for 20 mins followed by [gamma-33P]-ATP addition and measured after 120 mins by radiometric Hot-SpotSM Kinase assay relative to control
# [4] = target: Tyrosine-protein kinase JAK1 (Homo sapiens) (UniProt P23458); test: Inhibition of human JAK1 assessed as enzyme activity at 1 uM using poly[Glu:Tyr] (4:1) as substrate preincubated for 20 mins followed by [gamma-33P]-ATP addition and measured after 120 mins by radiometric Hot-SpotSM Kinase assay relative to control
# [5] = target: T2, Mitogen-activated protein kinase kinase kinase 3 (Homo sapiens) (UniProt Q99759); test: Inhibition of human MEKK3 assessed as enzyme activity at 1 uM using myelin basic protein as substrate preincubated for 20 mins followed by [gamma-33P]-ATP addition and measured after 120 mins by radiometric Hot-SpotSM Kinase assay relative to control
# T2 sequence (whole entry): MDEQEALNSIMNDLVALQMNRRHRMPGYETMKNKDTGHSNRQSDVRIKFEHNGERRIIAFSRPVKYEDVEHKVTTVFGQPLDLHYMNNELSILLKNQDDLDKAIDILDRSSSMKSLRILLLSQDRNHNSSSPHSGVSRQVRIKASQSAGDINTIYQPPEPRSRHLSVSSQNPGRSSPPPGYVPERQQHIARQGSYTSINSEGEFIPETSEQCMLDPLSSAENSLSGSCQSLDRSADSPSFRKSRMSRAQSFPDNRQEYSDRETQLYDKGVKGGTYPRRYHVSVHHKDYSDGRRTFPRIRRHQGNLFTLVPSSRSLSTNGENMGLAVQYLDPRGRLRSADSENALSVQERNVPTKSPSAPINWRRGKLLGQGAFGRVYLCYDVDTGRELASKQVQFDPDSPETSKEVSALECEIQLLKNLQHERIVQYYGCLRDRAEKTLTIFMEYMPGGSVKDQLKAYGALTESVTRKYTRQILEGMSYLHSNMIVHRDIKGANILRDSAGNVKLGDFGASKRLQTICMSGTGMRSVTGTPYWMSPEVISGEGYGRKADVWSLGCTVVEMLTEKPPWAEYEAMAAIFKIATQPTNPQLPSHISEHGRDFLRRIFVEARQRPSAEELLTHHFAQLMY
# [6] = target: Macrophage colony-stimulating factor 1 receptor (Homo sapiens) (UniProt P07333); test: Inhibition of human FMS assessed as enzyme activity at 1 uM using poly[Glu:Tyr] (4:1) as substrate preincubated for 20 mins followed by [gamma-33P]-ATP addition and measured after 120 mins by radiometric Hot-SpotSM Kinase assay relative to control
# [7] = target: Serine/threonine-protein kinase PAK 2 (Homo sapiens) (UniProt Q13177); test: Inhibition of human PAK2 assessed as enzyme activity at 1 uM using RRRLSFAEPG as substrate preincubated for 20 mins followed by [gamma-33P]-ATP addition and measured after 120 mins by radiometric Hot-SpotSM Kinase assay relative to control
# [8] = target: T3, Phosphorylase b kinase gamma catalytic chain, liver/testis isoform (Homo sapiens) (UniProt P15735); test: Inhibition of human PHKg2 assessed as enzyme activity at 1 uM using KKLNRTLSFAEPG as substrate preincubated for 20 mins followed by [gamma-33P]-ATP addition and measured after 120 mins by radiometric Hot-SpotSM Kinase assay relative to control
# T3 sequence (whole entry): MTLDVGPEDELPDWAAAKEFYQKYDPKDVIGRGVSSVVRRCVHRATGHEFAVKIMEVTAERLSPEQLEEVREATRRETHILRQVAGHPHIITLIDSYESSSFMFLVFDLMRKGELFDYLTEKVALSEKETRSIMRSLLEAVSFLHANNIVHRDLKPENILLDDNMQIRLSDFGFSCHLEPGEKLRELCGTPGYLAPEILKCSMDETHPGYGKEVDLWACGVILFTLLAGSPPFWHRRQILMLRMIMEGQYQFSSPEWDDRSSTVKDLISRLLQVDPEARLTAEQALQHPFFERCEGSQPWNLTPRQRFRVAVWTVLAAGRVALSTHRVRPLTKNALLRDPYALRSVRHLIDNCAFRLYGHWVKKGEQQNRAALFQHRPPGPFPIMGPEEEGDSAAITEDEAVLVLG
# [9] = target: Ribosomal protein S6 kinase alpha-3 (Homo sapiens) (UniProt P51812); test: Inhibition of human RSK2 assessed as enzyme activity at 1 uM using KKLNRTLSVA as substrate preincubated for 20 mins followed by [gamma-33P]-ATP addition and measured after 120 mins by radiometric Hot-SpotSM Kinase assay relative to control
# Chain of Ribosomal protein S6 kinase alpha-3 (Homo sapiens) (P51812 whole entry): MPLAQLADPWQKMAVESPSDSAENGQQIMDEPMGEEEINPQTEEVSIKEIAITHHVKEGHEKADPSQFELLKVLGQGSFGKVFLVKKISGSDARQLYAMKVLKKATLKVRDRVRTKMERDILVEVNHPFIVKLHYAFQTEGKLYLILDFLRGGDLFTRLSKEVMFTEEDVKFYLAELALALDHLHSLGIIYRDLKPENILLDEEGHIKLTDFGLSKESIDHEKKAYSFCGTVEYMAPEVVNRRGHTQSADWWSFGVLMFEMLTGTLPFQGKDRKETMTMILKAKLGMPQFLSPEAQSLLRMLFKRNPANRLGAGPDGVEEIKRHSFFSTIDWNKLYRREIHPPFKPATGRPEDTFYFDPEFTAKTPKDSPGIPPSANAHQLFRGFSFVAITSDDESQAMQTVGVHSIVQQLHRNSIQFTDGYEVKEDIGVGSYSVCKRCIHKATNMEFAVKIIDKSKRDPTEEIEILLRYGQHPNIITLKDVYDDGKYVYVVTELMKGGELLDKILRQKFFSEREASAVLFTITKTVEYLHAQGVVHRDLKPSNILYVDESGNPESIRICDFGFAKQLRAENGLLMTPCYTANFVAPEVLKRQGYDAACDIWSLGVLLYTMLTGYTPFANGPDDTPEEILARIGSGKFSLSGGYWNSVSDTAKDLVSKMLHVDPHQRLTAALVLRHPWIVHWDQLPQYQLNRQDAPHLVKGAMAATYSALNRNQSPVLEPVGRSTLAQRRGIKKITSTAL
# Chain of Serine/threonine-protein kinase PAK 2 (Homo sapiens) (Q13177 whole entry, canonical isoform): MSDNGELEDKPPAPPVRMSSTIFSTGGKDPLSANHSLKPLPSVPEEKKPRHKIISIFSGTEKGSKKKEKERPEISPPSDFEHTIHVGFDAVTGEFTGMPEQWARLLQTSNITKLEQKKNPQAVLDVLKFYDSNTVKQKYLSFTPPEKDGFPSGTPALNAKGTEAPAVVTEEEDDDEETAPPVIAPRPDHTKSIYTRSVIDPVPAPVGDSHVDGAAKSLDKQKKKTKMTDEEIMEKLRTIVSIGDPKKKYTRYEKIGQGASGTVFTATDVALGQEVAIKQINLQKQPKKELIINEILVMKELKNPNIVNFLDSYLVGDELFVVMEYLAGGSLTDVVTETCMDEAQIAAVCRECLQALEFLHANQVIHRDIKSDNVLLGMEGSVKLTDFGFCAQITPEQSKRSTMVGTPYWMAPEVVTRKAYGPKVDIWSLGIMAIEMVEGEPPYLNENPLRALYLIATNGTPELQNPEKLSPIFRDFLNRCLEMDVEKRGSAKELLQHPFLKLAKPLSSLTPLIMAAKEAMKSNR
# Chain of CDK1/Cyclin A (Homo sapiens) (P06493 whole entry, looked up): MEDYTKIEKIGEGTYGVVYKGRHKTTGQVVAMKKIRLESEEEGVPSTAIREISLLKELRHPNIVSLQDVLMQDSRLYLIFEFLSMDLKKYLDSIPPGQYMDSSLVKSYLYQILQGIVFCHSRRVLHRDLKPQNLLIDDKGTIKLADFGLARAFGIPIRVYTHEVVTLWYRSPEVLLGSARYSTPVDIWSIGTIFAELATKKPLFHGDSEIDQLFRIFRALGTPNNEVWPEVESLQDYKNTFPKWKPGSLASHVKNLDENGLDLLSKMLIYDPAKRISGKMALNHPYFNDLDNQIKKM
# Chain of CDK1/Cyclin A (Homo sapiens) (P20248 whole entry, looked up): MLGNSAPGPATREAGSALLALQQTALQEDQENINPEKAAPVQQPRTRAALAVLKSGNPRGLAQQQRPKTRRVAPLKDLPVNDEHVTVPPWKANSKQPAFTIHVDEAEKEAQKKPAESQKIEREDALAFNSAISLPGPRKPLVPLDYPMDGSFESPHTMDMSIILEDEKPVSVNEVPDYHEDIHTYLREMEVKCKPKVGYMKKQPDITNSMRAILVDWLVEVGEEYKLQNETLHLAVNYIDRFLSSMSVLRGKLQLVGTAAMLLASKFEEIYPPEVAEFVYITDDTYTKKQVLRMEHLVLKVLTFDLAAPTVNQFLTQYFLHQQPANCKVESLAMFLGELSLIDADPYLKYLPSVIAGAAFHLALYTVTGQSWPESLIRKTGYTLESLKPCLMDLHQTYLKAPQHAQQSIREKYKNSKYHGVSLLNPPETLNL
# Chain of STE20-like serine/threonine-protein kinase (Homo sapiens) (Q9H2G2 whole entry, looked up): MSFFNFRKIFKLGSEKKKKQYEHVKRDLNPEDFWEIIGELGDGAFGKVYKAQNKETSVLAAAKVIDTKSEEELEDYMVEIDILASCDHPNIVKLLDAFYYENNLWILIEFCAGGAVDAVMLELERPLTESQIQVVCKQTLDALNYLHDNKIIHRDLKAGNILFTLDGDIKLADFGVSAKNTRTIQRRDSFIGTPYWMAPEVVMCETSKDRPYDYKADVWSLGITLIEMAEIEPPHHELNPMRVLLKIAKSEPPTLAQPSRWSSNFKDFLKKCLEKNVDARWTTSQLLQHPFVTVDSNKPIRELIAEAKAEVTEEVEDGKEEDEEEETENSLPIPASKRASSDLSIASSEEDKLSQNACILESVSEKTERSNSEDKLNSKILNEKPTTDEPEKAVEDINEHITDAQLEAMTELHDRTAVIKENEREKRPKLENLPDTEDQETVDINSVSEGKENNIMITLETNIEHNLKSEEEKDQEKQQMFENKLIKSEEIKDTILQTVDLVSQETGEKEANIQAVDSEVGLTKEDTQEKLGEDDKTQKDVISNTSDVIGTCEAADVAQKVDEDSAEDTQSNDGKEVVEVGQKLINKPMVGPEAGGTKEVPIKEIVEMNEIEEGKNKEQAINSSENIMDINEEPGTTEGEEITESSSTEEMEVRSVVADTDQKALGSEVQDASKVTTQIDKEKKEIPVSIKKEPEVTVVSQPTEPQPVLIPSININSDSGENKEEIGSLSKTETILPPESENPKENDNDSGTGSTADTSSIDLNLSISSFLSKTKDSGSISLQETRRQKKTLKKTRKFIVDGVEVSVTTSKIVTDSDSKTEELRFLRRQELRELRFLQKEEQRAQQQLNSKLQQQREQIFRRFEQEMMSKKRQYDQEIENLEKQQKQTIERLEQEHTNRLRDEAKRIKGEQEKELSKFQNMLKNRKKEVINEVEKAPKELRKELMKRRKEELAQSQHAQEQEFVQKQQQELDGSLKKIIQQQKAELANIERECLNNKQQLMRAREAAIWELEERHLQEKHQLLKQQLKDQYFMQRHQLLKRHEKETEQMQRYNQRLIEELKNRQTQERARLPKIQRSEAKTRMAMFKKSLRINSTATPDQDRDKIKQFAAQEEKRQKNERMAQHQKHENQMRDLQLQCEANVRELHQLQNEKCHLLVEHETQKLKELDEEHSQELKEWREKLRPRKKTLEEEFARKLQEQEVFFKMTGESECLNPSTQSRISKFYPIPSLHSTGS
# Chain of Macrophage colony-stimulating factor 1 receptor (Homo sapiens) (P07333 whole entry): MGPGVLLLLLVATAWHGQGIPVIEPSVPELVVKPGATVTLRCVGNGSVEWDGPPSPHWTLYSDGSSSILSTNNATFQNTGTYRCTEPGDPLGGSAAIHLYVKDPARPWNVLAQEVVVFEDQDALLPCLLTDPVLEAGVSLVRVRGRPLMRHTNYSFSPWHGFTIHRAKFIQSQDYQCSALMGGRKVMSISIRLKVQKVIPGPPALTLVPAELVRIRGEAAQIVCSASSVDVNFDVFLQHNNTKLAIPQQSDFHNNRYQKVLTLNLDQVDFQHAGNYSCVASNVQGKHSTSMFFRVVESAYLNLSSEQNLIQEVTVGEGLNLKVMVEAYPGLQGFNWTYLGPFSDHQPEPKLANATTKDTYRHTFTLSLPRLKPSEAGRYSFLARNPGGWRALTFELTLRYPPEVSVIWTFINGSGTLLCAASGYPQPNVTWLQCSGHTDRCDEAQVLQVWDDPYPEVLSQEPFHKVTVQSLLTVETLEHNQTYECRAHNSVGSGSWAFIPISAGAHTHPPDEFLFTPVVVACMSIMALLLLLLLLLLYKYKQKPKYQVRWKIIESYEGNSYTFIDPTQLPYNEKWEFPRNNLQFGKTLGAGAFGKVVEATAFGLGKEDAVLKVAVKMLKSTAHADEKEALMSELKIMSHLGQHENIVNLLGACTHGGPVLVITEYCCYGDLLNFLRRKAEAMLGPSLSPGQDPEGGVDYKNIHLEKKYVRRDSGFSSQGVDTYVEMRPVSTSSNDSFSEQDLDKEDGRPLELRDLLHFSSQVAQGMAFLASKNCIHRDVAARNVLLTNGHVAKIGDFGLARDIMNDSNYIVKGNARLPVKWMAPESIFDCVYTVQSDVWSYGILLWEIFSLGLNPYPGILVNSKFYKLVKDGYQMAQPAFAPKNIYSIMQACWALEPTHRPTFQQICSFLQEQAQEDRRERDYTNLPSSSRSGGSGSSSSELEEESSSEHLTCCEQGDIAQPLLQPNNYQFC
SMILES,Activity [1],Activity [2],Activity [3],Activity [4],Activity [5],Activity [6],Activity [7],Activity [8],Activity [9]
CC[C@H](Nc1ncnc2[nH]cnc12)c1nc2cccc(F)c2c(=O)n1-c1ccccc1,94.3%,95.5%,97.3%,85.6%,102%,98.1%,103%,89.1%,101%
C[C@H](Nc1ncnc2nc[nH]c12)c1cc2cccc(Cl)c2c(=O)n1-c1ccccc1,98.5%,95.7%,97.5%,84.6%,91.8%,100%,100%,102%,97.7%
CC(C)Oc1ccc(-c2nn([C@@H](C)c3oc4ccc(F)cc4c(=O)c3-c3cccc(F)c3)c3ncnc(N)c23)cc1F [UMBRALISIB],88.3%,96.9%,94.5%,83.4%,102%,104%,96.8%,95.4%,106%

# — ChEMBL document CHEMBL5715954, “Silencing c-Myc translation as a therapeutic strategy through targeting PI3Kδ and CK1ε in hematological malignancies” (Blood, 2017)
